Data on one compound can be found in ChEMBL document CHEMBL4024798.

The nature of data set [1]: Apparent permeability from apical to basolateral side in human Caco2 cells at 2 uM after 2 hrs by LC-MS/MS analysis. The format is ADME, cell-based. Conditions: caco-2, 2 h.
The nature of data set [2]: Apparent permeability from basolateral to apical side in human Caco2 cells at 2 uM after 2 hrs by LC-MS/MS analysis. The format is ADME, cell-based. To be noted: caco-2, 2 h.

In the case of `OC12CC3CC(C1)CC(NCc1cc(C4CC4)on1)(C3)C2`, the apparent permeability coefficient (Papp) in data set [1] worked out at 27.57 ×10⁻⁶ cm/s; in data set [2], 28.33 ×10⁻⁶ cm/s.
